Source: patent US20050288259A1, “Composition” (priority 2002, published 2005)

Assays:
[1] = tested on: L. cuprina diflubenzuron-resistant strain (Emmaville); experiment: In vitro first stage larvae exposure, prevention of adult fly emergence, diflubenzuron-resistant strain; parameters: species or system Lucilia cuprina
Excerpt: Dicyclanil and diflubenzuron belong to different chemical families but are loosely grouped into a large class commonly known as “insect growth regulators”. Importantly both compounds interfere differently with the various development stages of insects. […] The invention makes use of the fact that dicyclanil will control the strains of blowfly that diflubenzuron is ineffective against.
Fly larvae belonging to a diflubenzuron-susceptible strain (LS) and a diflubenzuron-resistant strain (Emmaville) of L. cuprina are tested. First stage larvae are exposed to differing concentrations (aimed to achieve 0-100% prevention of adult fly emergence) of dicyclanil, diflubenzuron or a combination of the two actives (at the ratio used in the invention). The number of larvae forming pupae and the number of pupae producing viable adult flies are recorded. The level of diflubenzuron resistance in the Emmaville strain prevents achieving complete inhibition of adult fly emergence with diflubenzuron. Maximum mortality is 41% at 300 mg diflubenzuron/kg. The limit of solubility of diflubenzuron precludes the testing of higher concentrations.

[2] = Tissue residue study in sheep; assay type: in vivo; settings: 2, 3, 4, 5, 6 or 17 weeks after treatment with the invention; none above Limit of Quantitation
Method: Tissue residue studies are carried out to determine the period after treatment where the produce of treated animals cannot be used for human consumption. The proposed maximum dose rate for the invention is used in this evaluation. Sheep are treated with the invention at the commencement of the study and at pre-defined intervals thereafter, groups of sheep are humanely sacrificed and the appropriate target tissues (liver, kidney, muscle, fat) are recovered and subsequently analyzed (under Good Laboratory Practice conditions) for the presence of active ingredients (and their metabolites if necessary).
The residue definition for dicyclanil in Australia is the sum of dicyclanil and its metabolite CGA 297′107. Considering this, in the course of this study the mean maximum residue concentrations were detected at two and three weeks post-treatment.
The residue definition for diflubenzuron in Australia is expressed as only diflubenzuron. In this study there were no detectable residues in individual tissues (liver, kidney, subcutaneous fat, renal fat) from any animal above the Limit of Quantitation (0.025 mg/kg) at 2, 3, 4, 5, 6 or 17 weeks after treatment.

Row | Compound | Emmaville strain response to dicyclanil ([1]; Emmaville strain compared with LS) | Maximum mortality ([1]; Emmaville strain, 300 mg diflubenzuron/kg) [%] | diflubenzuron residues in individual tissues (liver, kidney, subcutaneous fat, renal fat) [2] [mg/kg]
1 | N#Cc1c(N)nc(NC2CC2)nc1N [dicyclanil, 4,6-diamino-2-cyclopropylaminopyrimidine-5-carbonitrile] | typical of a susceptible strain |  | 
2 | O=C(NC(=O)c1c(F)cccc1F)Nc1ccc(Cl)cc1 [diflubenzuron, 1-(4-chlorophenyl)-3-(2,6-difluorobenzoyl)urea] |  | 41 | < 0.025
